Test results: US20240116985A1, “STAPLED PEPTIDES AND METHODS THEREOF” (priority 2020, published 2024)

Key:
[1] = biological target: T1, beta-catenin/TCF4 engagement (Homo sapiens, UniProt P35222); assay: Nano-BRET target engagement assay (B-cat-Halo & TCF4-Luc in HEK293 cells); type: cell-based; conditions: absolute IC50; read-out: NanoBRET Abs IC50
T1 construct: expressed in transfected cells; host or cells: HEK293
T1 sequence (P35222 1-781): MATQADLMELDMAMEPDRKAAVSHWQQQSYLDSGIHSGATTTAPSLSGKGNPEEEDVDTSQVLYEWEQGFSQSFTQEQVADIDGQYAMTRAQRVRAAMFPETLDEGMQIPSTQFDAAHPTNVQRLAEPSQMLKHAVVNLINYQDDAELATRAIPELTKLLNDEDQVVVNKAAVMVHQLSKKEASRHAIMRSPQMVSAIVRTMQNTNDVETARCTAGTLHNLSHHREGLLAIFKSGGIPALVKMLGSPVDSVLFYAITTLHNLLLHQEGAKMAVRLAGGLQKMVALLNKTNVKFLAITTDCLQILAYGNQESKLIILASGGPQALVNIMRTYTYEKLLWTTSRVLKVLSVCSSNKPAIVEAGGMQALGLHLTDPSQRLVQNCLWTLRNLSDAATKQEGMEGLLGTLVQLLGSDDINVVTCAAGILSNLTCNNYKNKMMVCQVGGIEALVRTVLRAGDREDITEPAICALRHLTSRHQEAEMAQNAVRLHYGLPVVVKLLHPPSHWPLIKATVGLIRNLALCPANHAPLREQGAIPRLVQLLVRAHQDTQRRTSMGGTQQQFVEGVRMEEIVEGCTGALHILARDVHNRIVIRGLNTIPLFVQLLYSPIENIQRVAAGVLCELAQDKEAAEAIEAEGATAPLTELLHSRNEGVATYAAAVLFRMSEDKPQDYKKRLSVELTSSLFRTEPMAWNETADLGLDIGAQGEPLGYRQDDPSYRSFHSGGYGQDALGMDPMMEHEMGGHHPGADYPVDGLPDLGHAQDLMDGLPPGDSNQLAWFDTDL

[2] = biological target: T2, full-length beta-Catenin (Uniprot ID P35222) (Homo sapiens, UniProt P35222); assay: Fluorescence polarization IC50 (beta-catenin / 5FAM-TCF4 10-53 competition); type: binding; conditions: fluorescence polarization; read-out: beta-Catenin FP IC50
T2 construct: 10 nM full-length beta-Catenin (Uniprot ID P35222)
T2 sequence (P35222 1-781): T1 sequence (P35222 1-781)

IC50 [1] [nM] | IC50 [2] [nM] | SMILES
> 20000 | 63 | CC(=O)N1CCC[C@]12CC=CCCCC1(CCCC=CCCCOC(=O)N3CC[C@@](C(=O)N[C@@H](Cc4ccsc4)C(=O)N[C@@H](Cc4csc5ccccc45)C(=O)N[C@@H](CCC(N)=O)C(N)=O)(C3)NC(=O)[C@H](CC(N)=O)NC(=O)[C@H](Cc3ccccc3)NC(=O)[C@H](C)NC(=O)C(C)(C)NC(=O)[C@H]([C@@H](C)O)NC(=O)[C@H](CC(N)=O)NC1=O)NC(=O)[C@H](CC(C)(C)C)NC(=O)[C@H](CC(=O)O)NC2=O (stereo partly drawn) [I-2338, Ac-PL3-Asp-Npg-B5-Asn-Thr-Aib-Ala-Phe-Asn-PyrS2-3Thi-BztA-Gln-NH2]
> 20000 | 5 | CC(=O)N1CCC[C@]12CC=CCCCC1(CCCC=CCCCOC(=O)N3CC[C@@](C(=O)N[C@@H](Cc4ccccc4)C(=O)N[C@@H](Cc4csc5ccccc45)C(=O)N[C@@H](CCC(N)=O)C(N)=O)(C3)NC(=O)[C@H](CC(C)C)NC(=O)[C@H](Cc3ccccc3)NC(=O)[C@H](C)NC(=O)[C@H](CCCCNC(C)C)NC(=O)[C@H](Cc3cccc(C(=O)O)c3)NC(=O)[C@H](CC(=O)O)NC1=O)NC(=O)[C@H](CC1CCCCC1)NC(=O)[C@H](CC(N)=O)NC2=O (stereo partly drawn) [I-2340, Ac-PL3-Asn-Cha-B5-Asp-3COOHF-iPrLys-Ala-Phe-Leu-PyrS2-Phe-BztA-Gln-NH2]
> 20000 | 42 | CC(=O)N1CCC[C@]12CC=CCCCC1(CCCC=CCCCOC(=O)N3CC[C@@](C(=O)N[C@@H](Cc4ccccc4)C(=O)N[C@@H](Cc4csc5ccccc45)C(=O)N[C@@H](CCC(N)=O)C(N)=O)(C3)NC(=O)[C@H](CC(C)C)NC(=O)[C@H](Cc3ccccc3)NC(=O)[C@H](C)NC(=O)[C@H](CCCCNC(C)C)NC(=O)[C@H](CN(CC(=O)O)CC(F)(F)F)NC(=O)[C@H](CC(=O)O)NC1=O)NC(=O)[C@H](CC1CCCCC1)NC(=O)[C@H](CC(N)=O)NC2=O (stereo partly drawn) [I-2341, Ac-PL3-Asn-Cha-B5-Asp-TfeGA-iPrLys-Ala-Phe-Leu-PyrS2-Phe-BztA-Gln-NH2]
> 20000 | 63 | CC(=O)N1CCC[C@]12CC=CCCCC1(CCCC=CCCCOC(=O)N3CC[C@@](C(=O)N[C@@H](Cc4ccccc4)C(=O)N[C@@H](Cc4csc5ccccc45)C(=O)N[C@@H](CCCCN)C(N)=O)(C3)NC(=O)[C@H](CC(C)C)NC(=O)[C@H](Cc3ccccc3)NC(=O)[C@H](C)NC(=O)[C@H](CCCCNC(C)C)NC(=O)[C@H](CCC(N)=O)NC(=O)[C@H](CC(=O)O)NC1=O)NC(=O)[C@H](CC1CCCCC1)NC(=O)[C@H](CC(N)=O)NC2=O (stereo partly drawn) [I-2350, Ac-PL3-Asn-Cha-B5-Asp-Gln-iPrLys-Ala-Phe-Leu-PyrS2-Phe-BztA-Lys-NH2]
> 20000 | 100 | CC(=O)N1CCC[C@]12CC=CCCCC1(CCCC=CCCCOC(=O)N3CC[C@@](C(=O)N[C@@H](Cc4ccccc4)C(=O)N[C@@H](Cc4csc5ccccc45)C(=O)N[C@@H](CCC(N)=O)C(N)=O)(C3)NC(=O)[C@H](CC(C)C)NC(=O)[C@H](Cc3ccccc3)NC(=O)[C@H](C)NC(=O)[C@H](CCO)NC(=O)[C@H](CCC(N)=O)NC(=O)[C@H](CC(=O)O)NC1=O)NC(=O)[C@H](CC1CCCCC1)NC(=O)[C@H](CC(N)=O)NC2=O (stereo partly drawn) [I-2354, Ac-PL3-Asn-Cha-B5-Asp-Gln-Hse-Ala-Phe-Leu-PyrS2-Phe-BztA-Gln-NH2]
> 20000 | 6990 | CCOC(=O)C[C@@H]1NC(=O)C2(CCCC=CCCCOC(=O)N3CC[C@@](C(=O)N[C@@H](Cc4ccsc4)C(=O)N[C@@H](Cc4csc5ccccc45)C(=O)N[C@@H](CCC(N)=O)C(N)=O)(C3)NC(=O)[C@H](CC(C)C)NC(=O)[C@H](Cc3ccccc3)NC(=O)[C@H](C)NC(=O)[C@H](C)NC(=O)[C@H](CC(=O)O)NC1=O)CCCC=CC[C@]1(CCCN1C(C)=O)C(=O)N[C@@H](CC(=O)O)C(=O)N[C@@H](CC(C)(C)C)C(=O)N2 (stereo partly drawn) [I-2357, Ac-PL3-Asp-Npg-B5-[Et]AspE-Asp-Ala-Ala-Phe-Leu-PyrS2-3Thi-BztA-Gln-NH2]
> 20000 | 424 | COC(=O)C[C@@H]1NC(=O)[C@]2(CC=CCCCC3(CCCC=CCCCOC(=O)N4CC[C@@](C(=O)N[C@@H](Cc5ccsc5)C(=O)N[C@@H](Cc5csc6ccccc56)C(=O)N[C@@H](CCC(N)=O)C(N)=O)(C4)NC(=O)[C@H](CC(C)C)NC(=O)[C@H](Cc4ccccc4)NC(=O)[C@H](C)NC(=O)[C@H](C)NC(=O)[C@H](CC(=O)O)NC(=O)[C@H](CC(=O)O)NC3=O)NC(=O)[C@H](CC(C)(C)C)NC1=O)CCCN2C(C)=O (stereo partly drawn) [I-2359, Ac-PL3-[Me]AspE-Npg-B5-Asp-Asp-Ala-Ala-Phe-Leu-PyrS2-3Thi-BztA-Gln-NH2]
> 20000 | 2440 | COC(=O)C[C@@H]1NC(=O)C2(CCCC=CCCCOC(=O)N3CC[C@@](C(=O)N[C@@H](Cc4ccsc4)C(=O)N[C@@H](Cc4csc5ccccc45)C(=O)N[C@@H](CCC(N)=O)C(N)=O)(C3)NC(=O)[C@H](CC(C)C)NC(=O)[C@H](Cc3ccccc3)NC(=O)[C@H](C)NC(=O)[C@H](C)NC(=O)[C@H](CC(=O)O)NC1=O)CCCC=CC[C@]1(CCCN1C(C)=O)C(=O)N[C@@H](CC(=O)O)C(=O)N[C@@H](CC(C)(C)C)C(=O)N2 (stereo partly drawn) [I-2360, Ac-PL3-Asp-Npg-B5-[Me]AspE-Asp-Ala-Ala-Phe-Leu-PyrS2-3Thi-BztA-Gln-NH2]
36700 | 349 | COC(=O)C[C@@H]1NC(=O)[C@H](CC(=O)O)NC(=O)C2(CCCC=CCCCOC(=O)N3CC[C@@](C(=O)N[C@@H](Cc4ccsc4)C(=O)N[C@@H](Cc4csc5ccccc45)C(=O)N[C@@H](CCC(N)=O)C(N)=O)(C3)NC(=O)[C@H](CC(C)C)NC(=O)[C@H](Cc3ccccc3)NC(=O)[C@H](C)NC(=O)[C@H](C)NC1=O)CCCC=CC[C@]1(CCCN1C(C)=O)C(=O)N[C@@H](CC(=O)O)C(=O)N[C@@H](CC(C)(C)C)C(=O)N2 (stereo partly drawn) [I-2361, Ac-PL3-Asp-Npg-B5-Asp-[Me]AspE-Ala-Ala-Phe-Leu-PyrS2-3Thi-BztA-Gln-NH2]
6200 | 7 | CC(=O)N1CCC[C@]12CC=CCCCC1(CCCC=CCCCOC(=O)N3CC[C@@](C(=O)N[C@@H](Cc4ccccc4C(F)(F)F)C(=O)N[C@@H](Cc4csc5ccccc45)C(=O)N[C@@H](C)C(N)=O)(C3)NC(=O)[C@H](CC(C)C)NC(=O)[C@H](Cc3ccccc3)NC(=O)[C@H](C)NC(=O)[C@H](CCC(N)=O)NC(=O)[C@H](Cn3cc(CCC(=O)O)nn3)NC(=O)[C@H](CC(=O)O)NC1=O)NC(=O)[C@H](CC(C)(C)C)NC(=O)[C@H](CC(=O)O)NC2=O (stereo partly drawn) [I-2367, Ac-PL3-Asp-Npg-B5-Asp-[CH2CH2CO2H]TriAzDap-Gln-Ala-Phe-Leu-PyrS2-2F3MeF-BztA-Ala-NH2]
5000 | 5 | CC(=O)N1CCC[C@]12CC=CCCCC1(CCCC=CCCCOC(=O)N3CC[C@@](C(=O)N[C@@H](Cc4ccccc4C(F)(F)F)C(=O)N[C@@H](Cc4csc5ccccc45)C(=O)N[C@@H](C)C(N)=O)(C3)NC(=O)[C@H](CC(C)C)NC(=O)[C@H](Cc3ccccc3)NC(=O)[C@H](C)NC(=O)[C@H](CCC(N)=O)NC(=O)[C@H](Cn3cc(CC(C)(C)C(=O)O)nn3)NC(=O)[C@H](CC(=O)O)NC1=O)NC(=O)[C@H](CC(C)(C)C)NC(=O)[C@H](CC(=O)O)NC2=O (stereo partly drawn) [I-2368, Ac-PL3-Asp-Npg-B5-Asp-[CH2CMe2CO2H]TriAzDap-Gln-Ala-Phe-Leu-PyrS2-2F3MeF-BztA-Ala-NH2]
9500 | 14 | CC(=O)N1CCC[C@]12CC=CCCCC1(CCCC=CCCCOC(=O)N3CC[C@@](C(=O)N[C@@H](Cc4ccccc4C(F)(F)F)C(=O)N[C@@H](Cc4csc5ccccc45)C(=O)N[C@@H](C)C(N)=O)(C3)NC(=O)[C@H](CC(C)C)NC(=O)[C@H](Cc3ccccc3)NC(=O)[C@H](C)NC(=O)[C@H](CCC(N)=O)NC(=O)[C@H](Cn3cc(C(C)(C)C(=O)O)nn3)NC(=O)[C@H](CC(=O)O)NC1=O)NC(=O)[C@H](CC(C)(C)C)NC(=O)[C@H](CC(=O)O)NC2=O (stereo partly drawn) [I-2369, Ac-PL3-Asp-Npg-B5-Asp-[CMe2CO2H]TriAzDap-Gln-Ala-Phe-Leu-PyrS2-2F3MeF-BztA-Ala-NH2]
5000 | 5 | CC(=O)N1CCC[C@]12CC=CCCCC1(CCCC=CCCCOC(=O)N3CC[C@@](C(=O)N[C@@H](Cc4ccccc4C(F)(F)F)C(=O)N[C@@H](Cc4csc5ccccc45)C(=O)N[C@@H](CO)C(N)=O)(C3)NC(=O)[C@H](CC(C)C)NC(=O)[C@H](Cc3ccccc3)NC(=O)[C@H](C)NC(=O)[C@H](C)NC(=O)[C@H](Cn3cc(CCC(=O)O)nn3)NC(=O)[C@H](CC(=O)O)NC1=O)NC(=O)[C@H](CC(C)(C)C)NC(=O)[C@H](CC(=O)O)NC2=O (stereo partly drawn) [I-2371, Ac-PL3-Asp-Npg-B5-Asp-[CH2CH2CO2H]TriAzDap-Ala-Ala-Phe-Leu-PyrS2-2F3MeF-BztA-Ser-NH2]
